Experiments:
HIV-1 = experiment: Single-round infectivity on TZM-bl cells of HIV-1 produced in Pin1-inhibited 293T cells (Galacton-Star galactosidase assay); assay type: cell-based; conditions: for boost of infectivity: TZM-bl target cells
From the text: Viral inocula from transfections above were normalized to equal virion particle number via p24 ELISA and used to infect target CD4^+ HeLa cells (1×10^5 TZM-bl). Infectivity was scored using the Galacton-Star enzymatic galactosidase activity assay, and infectivity quantified by relative […] units (R.F.U).
Plasmids: Laboratory-adapted provirus NL4.3, and the CypA-independent NL4.3 CAi2 were kindly provided by Akio Adachi (Department of Virology, Institute of Health Biosciences, The University of Tokushima Graduate School, JAPAN). Mutant R9G89V was a gift from P. Gallay (TSR1) as were NL4.3-GFP and SIV-GFP (originally Dana Gabuzda, Dana Farber Cancer Institute). NL4.3 A92E was kindly provided by W. Phares (Genetics Unit, Novartis Forschungsinstitut, Vienna, Austria). R9Δgp160 plasmid clone was kindly provided by C. Aiken (Vanderbilt Medical Center). VSV-G (CMV-VSV-G) was kindly provided by D. Trono (École Polytechnique Fédérale de Lausanne). Both bMLV-GFP and nMLV-GFP in the form of pCIG3-N, pCIG3-B as well as pCNCG were kindly provided by J. Stoye (National Institute for Medical Research, UK). Isomerase mutant Pin1 (pFLAG-Pin1R68,69A) and WW-domain mutant Pin1 (pFLAG-Pin1 W34A) were constructed by site-directed mutagenesis. Pseudotyping experiments were performed using DNA constructs encoding the VSV-G generously provided by D. Trono. Human Pin1 was cloned into pFLAG (Sigma-Aldrich) making pFLAG-Pin1. Viruses were produced by transfection of 293T cells using either GeneJuice (Novagen) or calcium phosphate. […] All viruses were harvested 24-48 hours post-transfection and filtered (0.2-μM filter, Steriflip Millipore). HIV-1 viruses were normalized by p24 ELISA (Alliance HIV-1 p24 Antigen ELISA Kit, Perkin Elmer), and/or were normalized via the EnzChek® Reverse Transcriptase Assay Kit (E-22064) (Molecular Probes).
(§1) Infection assays for retrovirus: Single-round infections: CD4^+ TZM-bl 100,000 cells/well/mL were seeded onto 24-well plates 24 hours prior to infection. These cells were infected in quadruplicate to 24-well plates. Infectivity was scored using an enzymatic galactosidase activity assay. Specifically, infected TZM-bl cells were washed and lysed, and 20 μl of lysate was transferred to a 96-well plate for detecting β-galactosidase activity. 100 μl of reaction buffer Galacton-Star substrate (Applied Biosystems, Bedford, Mass.), diluted 1:50, was added to 20 μl of lysate, and the light emission was measured over 1 second in a microplate luminometer after 30 minutes incubation. For human PBMC infections, cells were exposed to 10 ng of wild-type virus for 6 hours, washed, and split into two flasks: one with 10 μM PiB added on day 0 and 3, and one without PiB. Replication was monitored by p24 ELISA. For measuring infectivity of GFP-virus, 50,000 TZMb1, sMAGI, OMK, Vero, BSC-1 and CV-1 cells/well/mL were seeded onto 6-well plates respectively 24 hours prior to infection. Viruses were used to infect in duplicate wells, incubated for 48 hours, washed with PBS, trypsinized, fixed in 1% formaldehyde and subsequently analyzed by fluorescence-activated cell sorting (FACS) for percentage cells infected.
To examine a potential role for Pin1 in HIV-1 replication we used two inhibitors of Pin1: juglone and PiB. […] 293T cells were transfected with a proviral construct encoding wild-type HIV-1 in the presence or absence of PiB or juglone.

HIV-1-GFP = experiment: Infectivity of HIV-1-GFP virions (RT-normalized), GFP fluorescence via FACS; assay type: cell-based
Method: 293T cells were transfected with HIV-1-GFP, SIV-GFP, bMLV-GFP, and nMLV-GFP proviral constructs, and in each case CMV-VSV-G, in the presence or absence of PiB or excess Pin1 as described above. Released virions were normalized via RT assay (EnzChek® Reverse Transcriptase Assay Kit), and infectivity on naïve TZMb1 cells was analyzed by GFP fluorescence via FACS (% cells infected).
as §1, with “For human PBMC infections, cells were exposed to 10 ng of wild-type virus for 6 hours, washed, and split into two flasks: one with 10 μM PiB added on day 0 and 3, and one without PiB.” left out, “For measuring infectivity of GFP-virus, 50,000 TZMb1, sMAGI, OMK, Vero, BSC-1 and CV-1 cells/well/mL were seeded onto 6-well plates respectively 24 hours prior to infection.” left out
We next asked whether Pin1 influences the infectivity of other retroviruses such as SIV, bMLV and nMLV. […] However, unlike previous experiments, virions were normalized via RT assay and infectivity in target cells was analyzed by GFP fluorescence via FACS. […] Note that the observed effect of Pin1 on HIV-1 infectivity using a different means of normalizing viruses (reverse transcriptase activity vs. p24 capsid) and a different means of quantifying infectivity (GFP), agrees with our previous findings above.
We further examined whether blocking Pin1 in producer cells can enhance the infectivity of retroviruses in different primate target cells. […] Infectivity was analyzed by GFP fluorescence via FACS. […]

nMLV-GFP = experiment: Infectivity of nMLV-GFP virions (RT-normalized), GFP fluorescence via FACS; assay type: cell-based; conditions: produced with PiB; TZM, OMK, sMAGI, Vero, CV-1 target cells
Method: as §1, with “For human PBMC infections, cells were exposed to 10 ng of wild-type virus for 6 hours, washed, and split into two flasks: one with 10 μM PiB added on day 0 and 3, and one without PiB.” left out, “For measuring infectivity of GFP-virus, 50,000 TZMb1, sMAGI, OMK, Vero, BSC-1 and CV-1 cells/well/mL were seeded onto 6-well plates respectively 24 hours prior to infection.” left out
We further examined whether blocking Pin1 in producer cells can enhance the infectivity of retroviruses in different primate target cells. […] Infectivity was analyzed by GFP fluorescence via FACS. […] If more cells are infected than the number infected by viruses from untreated cells, this is expressed as a value above 100%—e.g. 2000 cells/10,000 vs 4000 cells/10,000 would be 100% and 200% respectively. […]

[1] = test system: other prolyl isomerases such as CypA or FKBP; conditions: cited from earlier work
[2] = produced in 293T with 10 μm PiB, TZMb1

Question: For `CCOC(=O)CN1C(=O)c2ccc3c4c(ccc(c24)C1=O)C(=O)N(CC(=O)OCC)C3=O` [PiB, diethyl-1,3,6,8-tetrahydro-1,3,6,8-tetraoxobenzo[lmn][3,8]phenanthroline-2,7-diacetate], which “HIV-1 infectivity after treatment of target cells” value (HIV-1; TZM-bl pre-incubated with 0, 2, 10 μM PiB for 24 hours before VSV-G pseudotyped virus, read 48 hours post-infection) is on record?
Answer: no effect on HIV-1 infectivity

Question: What about the “infectivity of VSV-G pseudotyped HIV-1 lacking gp160 (NL4.3 Δenv)” value (HIV-1; produced in 293T in the presence of 2 μM or 10 μM PiB, TZM-bl) of the same compound?
Answer: enhanced

Question: What about the “boost of wild-type NL4.3 virus in the FIG. 3H experiment” value (HIV-1; [2]) of the same compound?
Answer: rather mild boost

Question: What about the “infectivity of CypA-deficient R9G89V mutant HIV-1” value (HIV-1; [2]) of the same compound?
Answer: dramatically boosted

Question: What about the boost of infectivity (HIV-1; viruses produced in 293T in the presence of 2.0 μM inhibitor) of the same compound?
Answer: 2 fold

Question: What about the boost of infectivity (HIV-1; viruses produced in 293T in the presence of 10 μM PiB) of the same compound?
Answer: 8 fold

Question: What about the “boost of HIV-1-GFP infectivity” value (HIV-1-GFP; produced in 293T with PiB, TZMb1 cells, % cells infected) of the same compound?
Answer: 3 fold

Question: And the “infectivity of HIV-1-GFP in primate target cell panel” value (HIV-1-GFP; produced with PiB, TZM, OMK, sMAGI, Vero, CV-1 target cells)?
Answer: enhanced infectivity

Question: What about the “boost of HIV-GFP infectivity in OMK cells” value (HIV-1-GFP; relative to control HIV-1 infectivity seen in sMAGI cells (no infection of OMK with control HIV-1)) of the same compound?
Answer: 400%

Question: What about the “infectivity of nMLV-GFP in primate target cell panel” value (nMLV-GFP) of the same compound?
Answer: enhanced infectivity

Question: And the “inhibition of other PPIase families (CypA, FKBP)” value [1]?
Answer: do not inhibit
